Laboratory results: EP4635969A1, “NOVEL GLUCOCORTICOID, METHOD FOR PREPARING SAME, AND USE THEREOF” (Tianjin Pharmaceutical Biotechnology Co., Ltd., priority 2022, dated 2024)

Tests used:
[1] = Determination of stability in plasma in vitro, human plasma (LC-MS/MS); assay type: in vitro ADME; details: same experimental conditions (human and mouse plasma)
Protocol: Pharmacological Example 3: Determination of Stability in Plasma in Vitro
The stock solution was diluted with acetonitrile to obtain a working solution at a concentration of 100 µ M. The solution should be freshly prepared prior to use and maintained at room temperature during application.
990 µ L of human and mouse plasma (N = 2) were separately pipetted and pre-incubated at 37 °C for 5 min. Then, 10 µ L of the test compound working solution was added and vortexed thoroughly (the final concentration of the test compound was 1 µ M). Immediately, 50 µ L of the plasma sample was added to 150 µ L of ice-cold precipitation agent containing the internal standard and vortexed thoroughly as the 0-time sample. The remaining plasma sample was continuously incubated at 37 °C, and 50 µ L of the plasma sample was aspirated and added to 150 µ L of ice-cold precipitation agent containing the internal standard at preset sampling time points, followed by thorough vortexing. The collected samples were stored in a freezer at -60 to -90 °C until analysis.
The concentration of the test compound was determined by LC-MS/MS, and its degradation was monitored. (semi-quantitative determination was conducted by comparing the peak area of the analyte to that of the internal standard).

[2] = biological target: T1, mineralocorticoid receptor (MR) (Homo sapiens, UniProt P08235); assay: Assay for agonist activity on mineralocorticoid receptor (luciferase reporter, HEK293 cells transfected with pBIND-MR plasmid); assay type: cell-based; details: for Target selectivity MR/GR: ratio of EC50 values; for target selectivity: MR/GR and PR/GR, same experimental conditions
T1 sequence (P08235 726-984): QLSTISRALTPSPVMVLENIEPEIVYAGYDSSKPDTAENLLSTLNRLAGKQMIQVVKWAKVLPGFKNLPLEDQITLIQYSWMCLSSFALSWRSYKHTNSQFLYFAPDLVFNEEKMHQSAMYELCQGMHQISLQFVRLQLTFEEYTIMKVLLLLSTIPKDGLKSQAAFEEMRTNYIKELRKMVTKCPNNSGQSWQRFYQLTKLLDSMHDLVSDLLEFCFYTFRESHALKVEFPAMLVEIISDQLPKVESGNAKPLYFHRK
Summary of the method: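 HEK293 cells transiently transfected with pBIND-MR or pBIND-PR, seeded in phenol red-free DMEM with 5% charcoal-stripped serum. Compounds tested as 12-point 4-fold dilutions from 50 µM in duplicate, 0.1% DMSO blank. Luciferase luminescence read, EC50 by nonlinear fit.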

uveitis model rats = assay: Anti-uveitis pharmacodynamic experiment (LPS model): ocular pathological score; assay type: in vivo, male SD rats; details: compared with the model group
Protocol: Pharmacodynamic Experiment on Anti-Uveitis
Positive control drug: Fluorometholone Eye Drops (specification: 5 mL/5 mg; Santen Pharmaceutical (CHINA) Co., Ltd.; Lot No. : J20180068) was used as the positive control drug and stored at room temperature protected from light until use.
Fifty male SD rats underwent a one-week adaptive feeding period. […] Groups 2 to 5 were used to establish rat uveitis models by single subcutaneous injection of 1 mg/kg LPS (Salmonella; Sigma; Lot No. 0000164114) into the plantar tissue of the hindpaw. Salmonella endotoxin was dissolved in normal saline to prepare an injection solution at a concentration of 2 mg/mL, which was injected subcutaneously at 1 mg/kg into the plantar tissue of one paw of the rats. Group 1 was injected with an equal volume of normal saline.
At the end of the experiment, photos of the rats' eyes were taken using a slit-lamp microscope, and the differences in ocular lesions of rats among groups were compared and analyzed.
Statistical analysis was performed using SPSS software. Measurement data were expressed as mean ± standard deviation. One-way ANOVA was used for intergroup comparisons. For data with homogeneous variance, LSD test was used; for data with heterogeneous variance, Dunnett-t test was used. A value of P < 0.05 was considered statistically significant.

IL-17 = assay: Psoriasis experiment (imiquimod model): inflammatory cytokine in serum (ELISA); assay type: in vivo, mice; details: compared with the model group
Protocol: Positive control drug: Fluticasone Propionate Cream (specification: 0.05% × 15 g, Zhejiang Xianju Pharmaceutical Co. Ltd., Lot No. 211106), stored at room temperature protected from light until use.
Adult mice were selected, and the skin of 2 cm × 3 cm on the back of mice was locally depilated. The mice in the model group and drug administration group were applied with 62.5 mg of 5% imiquimod cream on their back for modeling, while the mice in the blank control group were applied with medical petroleum jelly on their back daily. The above procedures were performed once a day for 7 consecutive days.
The mice in the drug administration group were applied with the corresponding drugs on their backs daily at a dose of 0.2 g per mouse, while the blank control group and the model group were only applied with 0.2 g of the test sample drug matrix. One hour after drug administration, the drugs were wiped off with sterile cotton swabs, followed by the application of imiquimod. The above procedures were performed once a day for 7 consecutive days.
After the PASI scoring on day 8 of modeling, blood was collected from the orbital sinus of mice and centrifuged at 3000 rpm for 10 min. The supernatant was extracted to measure the level of IL-17. All procedures were performed following the instructions of the ELISA kit.
Statistical analysis was performed using SPSS software, and the results were expressed as mean ± standard deviation. One-way ANOVA was used for intergroup comparisons. For data with homogeneous variance, the LSD test was used; for data with heterogeneous variance, the Dunnett-t test was used. A value of P < 0.05 was considered statistically significant.

[3] = biological target: T2, glucocorticoid receptor (GR) (Homo sapiens, UniProt P04150); assay: Assay for agonist activity on glucocorticoid receptor (luciferase reporter, HEK293 cells transfected with pBIND-GR plasmid); assay type: cell-based
T2 sequence (P04150 521-777): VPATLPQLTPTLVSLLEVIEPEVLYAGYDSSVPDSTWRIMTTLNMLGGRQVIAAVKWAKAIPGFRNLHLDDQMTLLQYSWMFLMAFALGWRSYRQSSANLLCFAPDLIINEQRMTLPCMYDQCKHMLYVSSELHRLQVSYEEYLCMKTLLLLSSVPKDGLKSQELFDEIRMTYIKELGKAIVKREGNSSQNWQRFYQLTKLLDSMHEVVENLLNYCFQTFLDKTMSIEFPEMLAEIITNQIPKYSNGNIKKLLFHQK
Summary of the method: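 Readout is luciferase luminescence, with EC50 derived by nonlinear fitting. Compounds ran at 10 concentrations (4-fold steps, top 10 µM, duplicate wells) on pBIND-GR-transfected HEK293 cells in phenol red-free DMEM plus 5% charcoal-stripped serum; 0.1% DMSO served as blank.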

[4] = GR agonist EC50 (nM), HEK293 cells transfected with pBIND-GR, luciferase signal
[5] = Nuclear receptor enzyme activity (nM) GR, EC50 of agonist activity, HEK293 reporter cells

SMILES | plasma instability [1] | EC50 [2] [nM] | Target selectivity MR/GR [2] | ocular abnormalities / ocular pathological score (uveitis model rats) | level of IL-17 / inflammatory cytokines in psoriasis model mice (IL-17) | EC50 [3, 4] [nM] | EC50 [3, 5] [nM] | target selectivity [2]
C[C@]12C=CC(=O)C=C1CC[C@H]1[C@@H]3C[C@H]4OC(c5ccc(COC6CCOC6=O)cc5)O[C@@]4(C(=O)CO)[C@@]3(C)C[C@H](O)[C@@]12Cl (stereo partly drawn) [Compound 22, (6aS,6bR,7S,8aS,8bS,11aR,12aS,12bS)-6b-Chloro-7-hydroxy-8b-(2-hydroxyacetyl)-6a,8a-dimethyl-10-(4-(((2-oxotetrahydrofuran-3-yl)oxy)methyl)phenyl)-1,2,6a,6b,7,8,8a,8b,11a,12,12a,12b-do decahydro-4H-naphtho[2',1':4,5]indeno[1,2-d][1,3]dioxol-4-one] | exhibited the characteristic of plasma instability | > 50000 | > 9.1×10^4 | significantly improved ocular abnormalities | significantly inhibited inflammatory cytokines in the skin of psoriasis model mice | 0.55 | 0.55 | 
C[C@]12C=CC(=O)C=C1CC[C@H]1[C@@H]3C[C@H]4OC(c5ccc(CSC6CCOC6=O)nc5)O[C@@]4(C(=O)CO)[C@@]3(C)C[C@H](O)[C@@]12Cl (stereo partly drawn) [Compound 48, (6aS,6bR,7S,8aS,8bS,11aR,12aS,12bS)-6b-Chloro-7-hydroxy-8b-(2-hydroxyacetyl)-6a,8a-dimethyl-10-(6-(((2-oxotetrahydrofuran-3-yl)thio)methyl)pyridin-3-yl)-1,2,6a,6b,7,8,8a,8b,11a,12,12a,12 b-dodecahydro-4H-naphtho[2',1':4,5]indeno[1,2-d][1,3]dioxol-4-one] | exhibited the characteristic of plasma instability |  |  | significantly improved ocular abnormalities | significantly inhibited inflammatory cytokines in the skin of psoriasis model mice | 0.37 |  | target selectivity comparable to that of compound 23
C[C@]12C=CC(=O)C=C1[C@@H](F)C[C@H]1[C@@H]3C[C@H]4OC(c5ccc(CSC6CCOC6=O)cc5)O[C@@]4(C(=O)OCC#N)[C@@]3(C)C[C@H](O)[C@@]12F (stereo partly drawn) [Compound 37, Cyanomethyl (2S,6aS,6bR,7S,8aS,8bS,11aR,12aS,12bS)-2,6b-difluoro-7-hydroxy-6a,8a-dimethyl-4-oxo-10-(4-( ((2-oxotetrahydrofuran-3-yl)thio)methyl)phenyl)-1,2,4,6a,6b,7,8,8a,11a,12,12a,12b-dodecahydro-8bH-naphtho[2',1':4,5]indeno[1,2-d][1,3]dioxole-8b-carboxylate] | exhibited the characteristic of plasma instability |  |  | significantly improved ocular abnormalities | significantly inhibited inflammatory cytokines in the skin of psoriasis model mice | 0.78 |  | target selectivity comparable to that of compound 23
C[C@]12C=CC(=O)C=C1[C@@H](F)C[C@H]1[C@@H]3C[C@H]4OC(c5ccc(CSC6CCOC6=O)cc5)O[C@@]4(C(=O)OCF)[C@@]3(C)C[C@H](O)[C@@]12F (stereo partly drawn) [Compound 36, Fluoromethyl (2S,6aS,6bR,7S,8aS,8bS,11aR,12aS,12bS)-2,6b-difluoro-7-hydroxy-6a,8a-dimethyl-4-oxo-10-(4-( ((2-oxotetrahydrofuran-3-yl)thio)methyl)phenyl)-1,2,4,6a,6b,7,8,8a,11a,12,12a,12b-dodecahydro-8bH-naphtho[2',1':4,5]indeno[1,2-d][1,3]dioxole-8b-carboxylate] | exhibited the characteristic of plasma instability | > 50000 | > 4.2×10^5 | significantly improved ocular abnormalities | significantly inhibited inflammatory cytokines in the skin of psoriasis model mice | 0.12 | 0.12 | 
C[C@]12C=CC(=O)C=C1[C@@H](F)C[C@H]1[C@@H]3C[C@H]4OC(c5ccc(CSC6CCOC6=O)nc5)O[C@@]4(C(=O)CO)[C@@]3(C)C[C@H](O)[C@@]12F (stereo partly drawn) [Compound 46, (25,6aS,6bR,78,8a8,8bS,11aR,12a8,12b8S)-2,6b-Difluoro-7-hydroxy-8b-(2-hydroxyacetyl)-6a,8a-dimethyl-10-(6-(((2-oxotetrahydrofuran-3-yl)thio)methyl)pyridin-3-yl)-1,2,6a,6b,7,8,8a,8b,11a,12, 12a,12b-dodecahydro-4H-naphtho[2',1':4,5]indeno[1,2-d][1,3]dioxol-4-one] | exhibited the characteristic of plasma instability |  |  | significantly improved ocular abnormalities | significantly inhibited inflammatory cytokines in the skin of psoriasis model mice | 0.23 |  | target selectivity comparable to that of compound 23
C[C@]12C=CC(=O)C=C1CC[C@H]1[C@@H]3C[C@H]4OC(c5ccc(COC6CCOC6=O)cc5)O[C@@]4(C(=O)CO)[C@@]3(C)C[C@H](O)[C@@]12F (stereo partly drawn) [Compound 16, (6aS,6bR,7S,8aS,8bS,11aR,12aS,12bS)-6b-Fluoro-7-hydroxy-8b-(2-hydroxyacetyl)-6a,8a-dimethyl-10-(4-(((2-oxotetrahydrofuran-3-yl)oxy)methyl)phenyl)-1,2,6a,6b,7,8,8a,8b,11a,12,12a,12b-do decahydro-4H-naphtho[2',1':4,5]indeno[1,2-d][1,3]dioxol-4-one] | exhibited the characteristic of plasma instability | > 50000 | > 1.2×10^5 | significantly improved ocular abnormalities | significantly inhibited inflammatory cytokines in the skin of psoriasis model mice | 0.43 | 0.43 | 
C[C@]12C=CC(=O)C=C1[C@@H](F)C[C@H]1[C@@H]3C[C@H]4OC(c5ccc(CSC6CCOC6=O)cc5)O[C@@]4(C(=O)SCF)[C@@]3(C)C[C@H](O)[C@@]12F (stereo partly drawn) [Compound 34, S-(Fluoromethyl) (2S,6aS,6bR,7S,8aS,8bS,11aR,12aS,12bS)-2,6b-difluoro-7-hydroxy-6a,8a-dimethyl-4-oxo-10-(4-( ((2-oxotetrahydrofuran-3-yl)thio)methyl)phenyl)-1,2,4,6a,6b,7,8,8a,11a,12,12a,12b-dodecahydro-8bH-naphtho[2',1':4,5]indeno[1,2-d][1,3]dioxole-8b-carbothioate] | exhibited the characteristic of plasma instability | > 50000 | > 5.0×10^5 | significantly improved ocular abnormalities | significantly inhibited inflammatory cytokines in the skin of psoriasis model mice | 0.1 | 0.1 | 
C[C@]12C=CC(=O)C=C1[C@@H](F)C[C@H]1[C@@H]3C[C@H]4OC(c5ccc(CSC6CCOC6=O)cc5)O[C@@]4(C(=O)SCC#N)[C@@]3(C)C[C@H](O)[C@@]12F (stereo partly drawn) [Compound 35, S-(Cyanomethyl) (2S,6aS,6bR,7S,8aS,8bS,11aR,12aS,12bS)-2,6b-difluoro-7-hydroxy-6a,8a-dimethyl-4-oxo-10-(4-( ((2-oxotetrahydrofuran-3-yl)thio)methyl)phenyl)-1,2,4,6a,6b,7,8,8a,11a,12,12a,12b-dodecahydro-8bH-naphtho[2',1':4,5]indeno[1,2-d][1,3]dioxole-8b-carbothioate] | exhibited the characteristic of plasma instability | > 50000 | > 2.4×10^5 | significantly improved ocular abnormalities | significantly inhibited inflammatory cytokines in the skin of psoriasis model mice | 0.21 | 0.21 | 
